# Data: PubChem BioAssay AID2060509 (Molecular Pharmacology Branch, DTP, NCI, 2025)
# System: 485176-168-R4-J1-PDC spheroids with HUVEC/MSC, viability
# Assay: Anticancer human tumor 485176-168-R4-J1-PDC patient-derived pancreatic adenocarcinoma cell line growth inhibition [GQUAD]
# Settings: for IC50: curve of first compound; for viability, T/C: stronger effect = lower value
# How it was run: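 Viability of tumor cells grown as complex spheroids with endothelial and stromal cells, exposed to drug combinations. Top concentration at or near clinical Cmax (else 10 microM), diluted in half-log increments.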
# [1] = second compound 0.0316 µM, first compound 0.0316 µM
# [2] = second compound 0.0316 µM, first compound 0.1 µM
# [3] = second compound 0.0316 µM, first compound 0.316 µM
# [4] = second compound 0.0316 µM, first compound 1 µM
# [5] = second compound 0.0316 µM, first compound 3.16 µM
# [6] = second compound 0.0316 µM, first compound 10 µM
# [7] = second compound 0.1 µM, first compound 0.0316 µM
# [8] = second compound 0.1 µM, first compound 0.1 µM
# [9] = second compound 0.1 µM, first compound 0.316 µM
# [10] = second compound 0.1 µM, first compound 1 µM
# [11] = second compound 0.1 µM, first compound 3.16 µM
# [12] = second compound 0.1 µM, first compound 10 µM
# [13] = second compound 0.316 µM, first compound 0.0316 µM
# [14] = second compound 0.316 µM, first compound 0.1 µM
# [15] = second compound 0.316 µM, first compound 0.316 µM
# [16] = second compound 0.316 µM, first compound 1 µM
# [17] = second compound 0.316 µM, first compound 3.16 µM
# [18] = second compound 0.316 µM, first compound 10 µM
# [19] = second compound 1 µM, first compound 0.0316 µM
# [20] = second compound 1 µM, first compound 0.1 µM
# [21] = second compound 1 µM, first compound 0.316 µM
# [22] = second compound 1 µM, first compound 1 µM
# [23] = second compound 1 µM, first compound 3.16 µM
# [24] = second compound 1 µM, first compound 10 µM
# [25] = second compound 3.16 µM, first compound 0.0316 µM
# [26] = second compound 3.16 µM, first compound 0.1 µM
# [27] = second compound 3.16 µM, first compound 0.316 µM
# [28] = second compound 3.16 µM, first compound 1 µM
# [29] = second compound 3.16 µM, first compound 3.16 µM
# [30] = second compound 3.16 µM, first compound 10 µM
# [31] = second compound 10 µM, first compound 0.0316 µM
# [32] = second compound 10 µM, first compound 0.1 µM
# [33] = second compound 10 µM, first compound 0.316 µM
# [34] = second compound 10 µM, first compound 1 µM
# [35] = second compound 10 µM, first compound 3.16 µM
# [36] = second compound 10 µM, first compound 10 µM
# 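Note: spheroids exposed to compounds for seven days before readout.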
# 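Throughout, for viability, T/C: percent viability relative to DMSO vehicle control wells as 100%.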
structure (smiles),measurement,setting,value
C=CC(=O)N1CCN(c2nc(=O)n(-c3c(C)ccnc3C(C)C)c3nc(-c4c(O)cccc4F)c(F)cc23)C(C)C1 (stereo unspecified) + Cc1[nH]c2ccc(F)cc2c1-c1nc2c3cccnc3c3ncccc3c2[nH]1,IC50,second compound 0.0316 µM,> 10 µM
same,IC50,second compound 0.1 µM,> 10 µM
same,IC50,second compound 0.316 µM,> 10 µM
same,IC50,second compound 1 µM,> 10 µM
same,IC50,second compound 3.16 µM,> 10 µM
same,IC50,second compound 10 µM,> 10 µM
same,"viability, T/C",[1],114%
same,"viability, T/C",[2],100%
same,"viability, T/C",[3],103%
same,"viability, T/C",[4],89.4%
same,"viability, T/C",[5],122%
same,"viability, T/C",[6],102%
same,"viability, T/C",[7],80.1%
same,"viability, T/C",[8],109%
same,"viability, T/C",[9],116%
same,"viability, T/C",[10],112%
same,"viability, T/C",[11],117%
same,"viability, T/C",[12],102%
same,"viability, T/C",[13],87.3%
same,"viability, T/C",[14],86.4%
same,"viability, T/C",[15],92%
same,"viability, T/C",[16],101%
same,"viability, T/C",[17],111%
same,"viability, T/C",[18],96.7%
same,"viability, T/C",[19],96.7%
same,"viability, T/C",[20],86.5%
same,"viability, T/C",[21],104%
same,"viability, T/C",[22],103%
same,"viability, T/C",[23],113%
same,"viability, T/C",[24],104%
same,"viability, T/C",[25],91.7%
same,"viability, T/C",[26],95.5%
same,"viability, T/C",[27],108%
same,"viability, T/C",[28],83.6%
same,"viability, T/C",[29],92.1%
same,"viability, T/C",[30],90.8%
same,"viability, T/C",[31],87.3%
same,"viability, T/C",[32],105%
same,"viability, T/C",[33],78.1%
same,"viability, T/C",[34],80.8%
same,"viability, T/C",[35],87.7%
same,"viability, T/C",[36],76.5%
Cc1cccc(N(C)C(=O)C2C(O)CCN2c2nc(C)cc(C(F)(F)F)c2C#N)c1 (stereo unspecified) + Cc1[nH]c2ccc(F)cc2c1-c1nc2c3cccnc3c3ncccc3c2[nH]1,IC50,second compound 0.0316 µM,> 10 µM
same,IC50,second compound 0.1 µM,> 10 µM
same,IC50,second compound 0.316 µM,> 10 µM
same,IC50,second compound 1 µM,> 10 µM
same,IC50,second compound 3.16 µM,> 10 µM
same,IC50,second compound 10 µM,> 10 µM
same,"viability, T/C",[1],102%
same,"viability, T/C",[2],95.1%
same,"viability, T/C",[3],99.2%
same,"viability, T/C",[4],89%
same,"viability, T/C",[5],94.1%
same,"viability, T/C",[6],99.2%
same,"viability, T/C",[7],85.9%
same,"viability, T/C",[8],95.4%
same,"viability, T/C",[9],93.1%
same,"viability, T/C",[10],99%
same,"viability, T/C",[11],109%
same,"viability, T/C",[12],114%
same,"viability, T/C",[13],93.1%
same,"viability, T/C",[14],108%
same,"viability, T/C",[15],103%
same,"viability, T/C",[16],92.2%
same,"viability, T/C",[17],93.7%
same,"viability, T/C",[18],96.7%
same,"viability, T/C",[19],87%
same,"viability, T/C",[20],100%
same,"viability, T/C",[21],84.6%
same,"viability, T/C",[22],85.3%
same,"viability, T/C",[23],99.8%
same,"viability, T/C",[24],94.1%
same,"viability, T/C",[25],95.5%
same,"viability, T/C",[26],97.1%
same,"viability, T/C",[27],84.5%
same,"viability, T/C",[28],89.2%
same,"viability, T/C",[29],95.1%
same,"viability, T/C",[30],92.1%
same,"viability, T/C",[31],80.3%
same,"viability, T/C",[32],92%
same,"viability, T/C",[33],80.1%
same,"viability, T/C",[34],90%
same,"viability, T/C",[35],78.2%
same,"viability, T/C",[36],99.1%
COc1cc(C2c3cc4c(cc3C(OC3OC5COC(C)OC5C(O)C3O)C3COC(=O)C23)OCO4)cc(OC)c1O (stereo unspecified) + CN(C)c1ccc(Nc2c3ccc(NC(=O)CCN4CCCC4)cc3nc3cc(NC(=O)CCN4CCCC4)ccc23)cc1,IC50,second compound 0.0316 µM,0.34 µM
same,IC50,second compound 0.1 µM,0.476 µM
same,IC50,second compound 0.316 µM,0.474 µM
same,IC50,second compound 1 µM,0.412 µM
same,IC50,second compound 3.16 µM,0.333 µM
same,IC50,second compound 10 µM,0.303 µM
same,"viability, T/C",[1],87%
same,"viability, T/C",[2],74.7%
same,"viability, T/C",[3],38.9%
same,"viability, T/C",[4],39.6%
same,"viability, T/C",[5],30.1%
same,"viability, T/C",[6],9.84%
same,"viability, T/C",[7],89.6%
same,"viability, T/C",[8],82.8%
same,"viability, T/C",[9],46.4%
same,"viability, T/C",[10],41.2%
same,"viability, T/C",[11],29.2%
same,"viability, T/C",[12],12.1%
same,"viability, T/C",[13],98.8%
same,"viability, T/C",[14],81.5%
same,"viability, T/C",[15],47.5%
same,"viability, T/C",[16],42.2%
same,"viability, T/C",[17],26.3%
same,"viability, T/C",[18],10.1%
same,"viability, T/C",[19],90.6%
same,"viability, T/C",[20],71.6%
same,"viability, T/C",[21],50.6%
same,"viability, T/C",[22],39.1%
same,"viability, T/C",[23],24.6%
same,"viability, T/C",[24],9.92%
same,"viability, T/C",[25],75.5%
same,"viability, T/C",[26],63.7%
same,"viability, T/C",[27],44.5%
same,"viability, T/C",[28],39.5%
same,"viability, T/C",[29],33.6%
same,"viability, T/C",[30],12.8%
same,"viability, T/C",[31],95.5%
same,"viability, T/C",[32],69.8%
same,"viability, T/C",[33],45.3%
same,"viability, T/C",[34],36.9%
same,"viability, T/C",[35],23.4%
same,"viability, T/C",[36],10.2%
